Measured values taken from ChEMBL document CHEMBL1201862, “PubChem BioAssay data set” (2004).
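Five concentrations, 48 hours, 96-well plates. Abbreviation: GI50, concentration required for 50% inhibition of growth.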 The source made the active and inactive calls. Cut-off read from the data, not from the text of the source: active = GI50 up to about 1.1 µM and inactive = higher.

How the values were obtained:
Test in all cases: NCI anticancer screen, dose series, 48 h
[1] = test system: CCRF-CEM
[2] = test system: LOX IMVI
[3] = test system: OVCAR-5
[4] = test system: SF-539
[5] = test system: SK-MEL-28
[6] = test system: ACHN
[7] = test system: OVCAR-3
[8] = test system: NCI-H522
[9] = test system: HL-60
[10] = test system: SK-OV-3
[11] = test system: NCI-H23
[12] = test system: UO-31
[13] = test system: SF-268
[14] = test system: SNB-75
[15] = test system: 786-0
[16] = test system: TK-10
[17] = test system: HCT-116

Measured: GI50

COc1cc(/C=C/C(=O)c2sc(-n3nc(-c4ccccc4)cc3-c3ccccc3)nc2C)ccc1O
inactive: [1] > 100 µM | [2] > 100 µM | [3] > 100 µM | [4] > 100 µM | [5] > 100 µM | [6] > 100 µM | [7] > 100 µM | [8] 14.5 µM | [9] 49.9 µM | [10] > 100 µM | [11] > 100 µM | [12] > 100 µM | [13] > 100 µM | [14] 7.36 µM | [15] > 100 µM | [16] > 100 µM

CC1=C(O)C(=O)C2C(=O)C1C(C)C2c1ccc(Cl)cc1 (centres undefined)
inactive: [1] > 100 µM | [2] > 100 µM | [3] > 100 µM | [4] > 100 µM | [5] > 100 µM | [6] > 100 µM | [7] > 100 µM | [8] > 100 µM | [9] > 100 µM | [10] > 100 µM | [11] > 100 µM | [12] > 100 µM | [13] > 100 µM | [14] 72.3 µM | [15] > 100 µM | [16] > 100 µM

Cc1cc(=O)n(-c2cc3cccccc-3n2)[nH]1
inactive: [1] 4.13 µM | [17] 2.16 µM | [2] 9.64 µM | [3] 15.5 µM | [4] 5.47 µM | [5] 4.67 µM | [6] 5.87 µM | [7] 3.05 µM | [8] 2.68 µM | [9] 3.48 µM | [10] 6.31 µM | [11] 4.8 µM | [12] 6.35 µM | [14] 3.76 µM | [15] 4.58 µM | [16] 7.31 µM

COc1ccc(/C(Cl)=C(\C=O)c2ccc([N+](=O)[O-])cc2)cc1
inactive: [1] 4.1 µM | [2] 3.49 µM | [3] > 100 µM | [4] 12.6 µM | [5] 23 µM | [6] 18.5 µM | [7] 18.4 µM | [8] 4.36 µM | [9] 3.08 µM | [10] 33 µM | [11] 14 µM | [12] 18.5 µM | [13] 20.5 µM | [14] 5.35 µM | [15] 13.3 µM | [16] 30.1 µM

COC(=O)CCC(=O)Nc1cccc(C(F)(F)F)c1
inactive: [1] > 100 µM | [2] > 100 µM | [3] > 100 µM | [4] > 100 µM | [5] > 100 µM | [6] > 100 µM | [7] > 100 µM | [8] > 100 µM | [9] > 100 µM | [10] > 100 µM | [11] > 100 µM | [12] > 100 µM | [13] > 100 µM | [14] > 74.1 µM | [15] > 100 µM | [16] > 100 µM

S=C1SCC2CCCN12 (centres undefined)
inactive: [1] > 100 µM | [17] > 100 µM | [2] > 100 µM | [3] > 100 µM | [4] > 100 µM | [6] > 100 µM | [8] > 100 µM | [9] > 100 µM | [10] > 100 µM | [12] > 100 µM | [13] > 100 µM | [14] > 100 µM | [15] > 100 µM | [16] > 100 µM

CN1C(=O)C2C=CC1C1CCC2N(C)C1=O (centres undefined)
inactive: [1] > 100 µM | [17] > 100 µM | [2] > 100 µM | [3] > 100 µM | [4] > 100 µM | [5] > 100 µM | [7] > 100 µM | [8] > 100 µM | [9] > 100 µM | [10] > 100 µM | [11] > 100 µM | [12] > 100 µM | [13] > 100 µM | [14] > 100 µM | [15] > 100 µM | [16] > 100 µM

CC(C)(C)OC(=O)C#CC[C@H]1CCCC1/C=C/C(O)=C1/C(=O)NC(CCCNC(=O)OC(C)(C)C)C1=O (some centres undefined)
inactive: [1] 27.2 µM | [17] 11.4 µM | [2] 19.8 µM | [3] 88.5 µM | [4] 26.4 µM | [5] 17.1 µM | [6] 40.7 µM | [7] 31.8 µM | [8] 16.5 µM | [9] 33.3 µM | [10] 88.5 µM | [11] 24.9 µM | [12] 33.7 µM | [13] 23.9 µM | [14] 32.6 µM | [15] 40.6 µM | [16] 31.9 µM

Cn1cnc([N+](=O)[O-])c1Sc1nc2ccccc2o1
inactive: [1] 3.03 µM | [17] 3.58 µM | [2] 10.7 µM | [3] 14.2 µM | [4] 9.64 µM | [5] 5.78 µM | [6] 11.5 µM | [7] 5.81 µM | [8] 1.8 µM | [9] 1.51 µM | [10] 22.8 µM | [11] 5.22 µM | [12] 12.2 µM | [13] 8.32 µM | [14] 16.6 µM | [15] 14 µM | [16] 10.5 µM
